# Experimental data from ChEMBL document CHEMBL3044672, “N9- and N7-(Chloromethyl Phenymethyl)Chloropurine Derivatives from , '-Dichloroxylenes: Synthesis and Anticancer Activity” (2005).
# What was measured:
# Assay type in all cases: functional
# SF-268 = assay: Cytotoxicity against Homo sapiens (human) SF268 cells after 48 hr by sulforhodamine B assay; settings: SF-268, 48 h
# HOP-62 = assay: Cytotoxicity against Homo sapiens (human) HOP62 cells after 48 hr by sulforhodamine B assay; settings: HOP-62, 48 h
# MCF7 = assay: Cytotoxicity against Homo sapiens (human) MCF7 cells assessed as cell growth at 10^-4 M after 48 hr by Alamar blue assay; settings: MCF7, 48 h, read-out: Activity
# ACHN = assay: Cytotoxicity against Homo sapiens (human) ACHN cells after 48 hr by sulforhodamine B assay
# NCI-H322M = assay: Cytotoxicity against Homo sapiens (human) NCI-H322M cells after 48 hr by sulforhodamine B assay
# 786-0 = assay: Cytotoxicity against Homo sapiens (human) 786-0 cells after 48 hr by sulforhodamine B assay; settings: 786-0, 48 h
# Hs-578T = assay: Cytotoxicity against Homo sapiens (human) Hs 578T cells after 48 hr by sulforhodamine B assay
# SK-MEL-5 = assay: Cytotoxicity against Homo sapiens (human) SK-MEL-5 cells after 48 hr by sulforhodamine B assay; settings: SK-MEL-5, 48 h
# SNB-19 = assay: Cytotoxicity against Homo sapiens (human) SNB19 cells after 48 hr by sulforhodamine B assay; settings: SNB-19, 48 h
# LOX IMVI = assay: Cytotoxicity against Homo sapiens (human) LOXIMVI cells after 48 hr by sulforhodamine B assay
# MDA-MB-231 = assay: Cytotoxicity against Homo sapiens (human) MDA-MB-231 cells after 48 hr by sulforhodamine B assay; settings: MDA-MB-231, 48 h
# M14 = assay: Cytotoxicity against Homo sapiens (human) M14 cells after 48 hr by sulforhodamine B assay; settings: M14, 48 h
# RXF 393 = assay: Cytotoxicity against Homo sapiens (human) RXF393 cells after 48 hr by sulforhodamine B assay; settings: RXF 393, 48 h
# A549 = assay: Cytotoxicity against Homo sapiens (human) A549 cells after 48 hr by sulforhodamine B assay; settings: A549, 48 h
# TK-10 = assay: Cytotoxicity against Homo sapiens (human) TK10 cells after 48 hr by sulforhodamine B assay; settings: TK-10, 48 h
# EKVX = assay: Cytotoxicity against Homo sapiens (human) EKVX cells after 48 hr by sulforhodamine B assay
# UACC-62 = assay: Cytotoxicity against Homo sapiens (human) UACC62 cells after 48 hr by sulforhodamine B assay; settings: UACC-62, 48 h
# IGROV-1 = assay: Cytotoxicity against Homo sapiens (human) IGROV1 cells after 48 hr by sulforhodamine B assay; settings: IGROV-1, 48 h
# NCI-H460 = assay: Cytotoxicity against Homo sapiens (human) NCI-H460 cells after 48 hr by sulforhodamine B assay; settings: NCI-H460, 48 h
# DU-145 = assay: Cytotoxicity against Homo sapiens (human) DU145 cells after 48 hr by sulforhodamine B assay; settings: DU-145, 48 h
# HCC 2998 = assay: Cytotoxicity against Homo sapiens (human) HCC2998 cells after 48 hr by sulforhodamine B assay; settings: HCC 2998, 48 h
# HOP-92 = assay: Cytotoxicity against Homo sapiens (human) HOP92 cells after 48 hr by sulforhodamine B assay; settings: HOP-92, 48 h
# NCI-H23 = assay: Cytotoxicity against Homo sapiens (human) NCI-H23 cells after 48 hr by sulforhodamine B assay; settings: NCI-H23, 48 h
# SK-MEL-2 = assay: Cytotoxicity against Homo sapiens (human) SK-MEL-2 cells after 48 hr by sulforhodamine B assay; settings: SK-MEL-2, 48 h
# SF-295 = assay: Cytotoxicity against Homo sapiens (human) SF295 cells after 48 hr by sulforhodamine B assay; settings: SF-295, 48 h
# CAKI-1 = assay: Cytotoxicity against Homo sapiens (human) Caki1 cells after 48 hr by sulforhodamine B assay; settings: CAKI-1, 48 h
# MOLT-4 = assay: Cytotoxicity against Homo sapiens (human) MOLT4 cells after 48 hr by sulforhodamine B assay; settings: MOLT-4, 48 h
# UACC-257 = assay: Cytotoxicity against Homo sapiens (human) UACC257 cells after 48 hr by sulforhodamine B assay; settings: UACC-257, 48 h
# [1] = Cytotoxicity against Homo sapiens (human) NCI-ADR-RES cells after 48 hr by sulforhodamine B assay
# OVCAR-5 = assay: Cytotoxicity against Homo sapiens (human) OVCAR5 cells after 48 hr by sulforhodamine B assay; settings: OVCAR-5, 48 h
# T47D = assay: Cytotoxicity against Homo sapiens (human) T47D cells after 48 hr by sulforhodamine B assay
# [2] = read-out: LC50 (the source's name)
smiles,measurement,setting,value
ClCc1cccc(Cn2cnc3c(Cl)nc(Cl)nc32)c1,GI50,SF-268,2.51 µM
same,TGI,SF-268,6.6 µM
same,CC50,SF-268; [2],70.8 µM
same,GI50,HOP-62,2.29 µM
same,TGI,HOP-62,4.36 µM
same,CC50,HOP-62; [2],8.31 µM
same,growth at 100 µM,MCF7,0%
same,GI50,ACHN,1.9 µM
same,TGI,ACHN,3.71 µM
same,CC50,ACHN; [2],7.24 µM
same,GI50,NCI-H322M,2.29 µM
same,TGI,NCI-H322M,5.12 µM
same,CC50,NCI-H322M; [2],15.8 µM
same,GI50,786-0,12.3 µM
same,LC50,786-0,57.5 µM
same,TGI,786-0,26.9 µM
same,GI50,Hs-578T,1.99 µM
same,TGI,Hs-578T,4.36 µM
same,GI50,SK-MEL-5,1.58 µM
same,LC50,SK-MEL-5,5.88 µM
same,TGI,SK-MEL-5,3.02 µM
same,GI50,SNB-19,1.95 µM
same,LC50,SNB-19,8.92 µM
same,TGI,SNB-19,4.16 µM
same,GI50,LOX IMVI,1.69 µM
same,LC50,LOX IMVI,6.91 µM
same,TGI,LOX IMVI,3.38 µM
same,GI50,MDA-MB-231,1.95 µM
same,LC50,MDA-MB-231,7.24 µM
same,TGI,MDA-MB-231,3.71 µM
same,GI50,M14,1.77 µM
same,LC50,M14,6.45 µM
same,TGI,M14,3.38 µM
same,GI50,RXF 393,0.75 µM
same,TGI,RXF 393,2.09 µM
same,CC50,RXF 393; [2],5.12 µM
same,GI50,A549,3.09 µM
same,TGI,A549,10 µM
same,CC50,A549; [2],52.5 µM
same,GI50,TK-10,1.73 µM
same,TGI,TK-10,3.98 µM
same,CC50,TK-10; [2],8.91 µM
same,GI50,EKVX,1.73 µM
same,TGI,EKVX,2.31 µM
same,CC50,EKVX; [2],6.45 µM
same,GI50,UACC-62,1.86 µM
same,LC50 (concentration causing 50% net cell kill),UACC-62,6.45 µM
same,TGI,UACC-62,3.46 µM
same,GI50,IGROV-1,2.29 µM
same,LC50,IGROV-1,19.9 µM
same,TGI,IGROV-1,5.12 µM
same,GI50,NCI-H460,2.34 µM
same,TGI,NCI-H460,6.31 µM
same,CC50,NCI-H460; [2],> 100 µM
same,GI50,DU-145,1.58 µM
same,LC50,DU-145,5.62 µM
same,TGI,DU-145,2.95 µM
same,GI50,HCC 2998,1.62 µM
same,TGI,HCC 2998,3.16 µM
same,CC50,HCC 2998; [2],6.16 µM
same,GI50,HOP-92,1.82 µM
same,TGI,HOP-92,3.63 µM
same,CC50,HOP-92; [2],7.08 µM
same,GI50,NCI-H23,2.13 µM
same,TGI,NCI-H23,5.12 µM
same,CC50,NCI-H23; [2],22.4 µM
same,GI50,SK-MEL-2,1.99 µM
same,LC50 (concentration killing 50% of cells),SK-MEL-2,10 µM
same,TGI,SK-MEL-2,4.46 µM
same,GI50,SF-295,4.36 µM
same,TGI,SF-295,17 µM
same,CC50,SF-295; [2],45.7 µM
same,GI50,CAKI-1,2.23 µM
same,TGI,CAKI-1,5.88 µM
same,CC50,CAKI-1; [2],22.9 µM
same,GI50,MOLT-4,3.38 µM
same,TGI,MOLT-4,> 100 µM
same,CC50,MOLT-4; [2],> 100 µM
same,GI50,UACC-257,1.86 µM
same,LC50 (concentration killing 50% of cells),UACC-257,6.45 µM
same,TGI,UACC-257,3.46 µM
same,GI50,[1],2.39 µM
same,LC50 (concentration killing 50% of cells),[1],> 100 µM
same,TGI,[1],5.24 µM
same,GI50,OVCAR-5,6.45 µM
same,TGI,OVCAR-5,20.4 µM
same,CC50,OVCAR-5; [2],47.9 µM
same,GI50,T47D,1.95 µM
same,LC50,T47D,> 100 µM
same,TGI,T47D,4.46 µM
